Laboratory results taken from patent publication US8859768B2, “Heteroaryls and uses thereof” (Millennium Pharmaceuticals, Inc., priority 2010, dated 2014).

Target: T1, Human VPS34 (Homo sapiens, UniProt Q8NEB9)
T1 construct: GST (N); host or cells: SF9 insect cells (baculovirus)
Test: Human VPS34 Enzyme Assay (Adapta TR-FRET)
Format: biochemical
Conditions: compound at 1.111 μM; read-out: Average VPS34 % INH @ 1.111 μM
Protocol: VPS34 (accession number GB:BC033004) was cloned into pDEST20-Thombin as N-terminal GST tagged fusion proteins using the Gateway system (Invitrogen, catalog#11804-013). The sequences were verified before recombinant protein expression using the Baculovirus Expression System with Gateway® Technology.
For expression VPS34 was infected at 1MOI in SF9 cells and harvested 72 hours post infection.
For purification, VPS34 is purified by Glutathione Sepharose 4 Fast Flow (GE Healthcare #17-5132-03) followed by HiTrap Q (GE Healthcare #17-1153-01).
Human VPS34 Enzyme Assay Method
100 nL compounds in DMSO are added to wells of a 384 well microtitre plate (Greiner 780076). At room temperature: 5 ul VPS34 reaction buffer (Invitrogen Assay Buffer Q (diluted 1 in 5 with nanopure water) plus 2 mM DTT and 2 mM MnCl2) containing ATP (20 uM, Promega) and 200 uM PI-PS substrate (Invitrogen PV5122) is added followed immediately by 5 ul VPS34 reaction buffer (as above) containing VPS34 (5 nM, Millennium Protein Sciences Group) and the mixture is incubated with shaking at room temperature for 1 hour. Then 5 ul VPS34 stop-detect mix (as per Invitrogen Adapta Assay kit (PV5009) instructions (contains kinase quench buffer, TR-FRET buffer, Adapta Eu anti-ADP antibody and Alexa Fluor 647 ADP tracer)) is added to quench the reaction. The plates are then incubated for 30 minutes at room temperature with shaking and then read on a BMG PheraStar Plus reader.
3) VPS34 is assayed using Adapta™ Universal Kinase Assay Kit (Invitrogen).

T1 sequence (Q8NEB9 whole entry): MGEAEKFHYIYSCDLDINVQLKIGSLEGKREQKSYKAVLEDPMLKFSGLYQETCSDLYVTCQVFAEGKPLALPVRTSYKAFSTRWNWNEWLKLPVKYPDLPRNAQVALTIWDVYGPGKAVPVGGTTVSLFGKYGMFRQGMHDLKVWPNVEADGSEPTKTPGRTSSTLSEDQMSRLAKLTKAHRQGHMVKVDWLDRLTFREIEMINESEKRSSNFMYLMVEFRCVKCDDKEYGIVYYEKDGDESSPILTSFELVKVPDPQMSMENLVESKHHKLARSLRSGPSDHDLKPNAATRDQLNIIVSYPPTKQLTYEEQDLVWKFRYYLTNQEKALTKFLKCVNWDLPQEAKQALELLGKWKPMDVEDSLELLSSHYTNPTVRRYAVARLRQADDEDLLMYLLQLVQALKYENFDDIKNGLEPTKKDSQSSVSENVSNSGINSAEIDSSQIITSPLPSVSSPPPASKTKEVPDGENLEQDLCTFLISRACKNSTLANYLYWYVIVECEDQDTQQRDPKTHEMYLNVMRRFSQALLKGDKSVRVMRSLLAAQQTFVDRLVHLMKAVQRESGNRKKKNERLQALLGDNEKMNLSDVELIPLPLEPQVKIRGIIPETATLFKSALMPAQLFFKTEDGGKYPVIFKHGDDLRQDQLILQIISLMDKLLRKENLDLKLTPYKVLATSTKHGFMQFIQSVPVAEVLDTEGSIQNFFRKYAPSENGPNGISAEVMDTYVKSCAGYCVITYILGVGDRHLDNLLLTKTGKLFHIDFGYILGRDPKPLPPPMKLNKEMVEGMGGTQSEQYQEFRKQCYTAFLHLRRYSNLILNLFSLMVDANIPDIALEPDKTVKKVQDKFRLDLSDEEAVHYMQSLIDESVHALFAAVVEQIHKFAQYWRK

CC(=O)Nc1cc(-c2nc(C(=O)NC[C@@H](C)O)c(-c3ccccc3Cl)o2)c(C)cn1 (stereo in doubt) [Compound I-62, 2-(2-acetamido-5-methylpyridin-4-yl)-5-(2-chlorophenyl)-N-(2-hydroxypropyl)-1,3-oxazole-4-carboxamide]
inhibition at 1.111 µM: 51%

CC(=O)Nc1cc(-c2cc(C(=O)NC[C@@H](C)O)c(-c3ccccc3Cl)o2)c(C)cn1 (stereo in doubt) [Compound I-66, 5-(2-acetamido-5-methylpyridin-4-yl)-2-(2-chlorophenyl)-N-(2-hydroxypropyl)-3-furamide]
inhibition at 1.111 µM: 131%

CC(=O)Nc1cc(-c2cc(C(N)=O)c(-c3ccccc3Cl)o2)ccn1 [Compound I-1, 5-[2-(acetylamino)pyridin-4-yl]-2-(2-chlorophenyl)-3-furamide]
inhibition at 1.111 µM: 120%

CC(=O)Nc1cc(-c2cc(C(=O)O)c(-c3ccccc3Cl)o2)ccn1 [Compound I-2, 5-[2-(acetylamino)pyridin-4-yl]-2-(2-chlorophenyl)-3-furoic acid]
inhibition at 1.111 µM: 124%

CC(=O)Nc1cc(-c2nc(C(N)=O)c(-c3ccccc3Cl)o2)c(C)cn1 [Compound I-3, 2-[2-(acetylamino)-5-methylpyridin-4-yl]-5-(2-chlorophenyl)-1,3-oxazole-4-carboxamide]
inhibition at 1.111 µM: 112%

CC(=O)Nc1cc(-c2nc(-c3nnc[nH]3)c(-c3ccccc3Cl)o2)c(C)cn1 [Compound I-4, N-{4-[5-(2-chlorophenyl)-4-(4H-1,2,4-triazol-3-yl)-1,3-oxazol-2-yl]-5-methylpyridin-2-yl}acetamide]
inhibition at 1.111 µM: 118%

CC(=O)Nc1cc(-c2nc(-c3ccccc3Cl)c(C(N)=O)o2)c(C)cn1 [Compound I-5, 2-[2-(acetylamino)-5-methylpyridin-4-yl]-4-(2-chlorophenyl)-1,3-oxazole-5-carboxamide]
inhibition at 1.111 µM: 108%

CC(=O)Nc1cc(-c2nc(C(=O)O)c(-c3ccccc3Cl)o2)c(C)cn1 [Compound I-6, 2-[2-(acetylamino)-5-methylpyridin-4-yl]-5-(2-chlorophenyl)-1,3-oxazole-4-carboxylic acid]
inhibition at 1.111 µM: 99%

CC(=O)Nc1cc(-c2cc(-c3nnc[nH]3)c(-c3cc(CN(C)C)ccc3Cl)o2)c(C)cn1 [Compound I-7, N-{4-[5-{2-chloro-5-[(dimethylamino)methyl]phenyl}-4-(4H-1,2,4-triazol-3-yl)-2-furyl]-5-methylpyridin-2-yl}acetamide]
inhibition at 1.111 µM: 147%

CC(=O)Nc1ccc(-c2nc(-c3nnc[nH]3)c(-c3ccccc3Cl)o2)cc1 [Compound I-8, N-{4-[5-(2-chlorophenyl)-4-(4H-1,2,4-triazol-3-yl)-1,3-oxazol-2-yl]phenyl}acetamide]
inhibition at 1.111 µM: 7%

CC(=O)Nc1cc(-c2nc(C(=O)NCc3ccco3)c(-c3ccccc3Cl)o2)c(C)cn1 [Compound I-9, 2-(2-acetamido-5-methylpyridin-4-yl)-5-(2-chlorophenyl)-N-(2-furylmethyl)-1,3-oxazole-4-carboxamide]
inhibition at 1.111 µM: 64%

CC(=O)Nc1cc(-c2nc(-c3ncco3)c(-c3ccccc3Cl)o2)c(C)cn1 [Compound I-10, N-{4-[5′-(2-chlorophenyl)-2,4′-bi-1,3-oxazol-2′-yl]-5-methylpyridin-2-yl}acetamide]
inhibition at 1.111 µM: 132%

CC(=O)Nc1cc(-c2nc(C(=O)NCCC(C)C)c(-c3ccccc3Cl)o2)c(C)cn1 [Compound I-11, 2-(2-acetamido-5-methylpyridin-4-yl)-5-(2-chlorophenyl)-N-(3-methylbutyl)-1,3-oxazole-4-carboxamide]
inhibition at 1.111 µM: 22%

CC(=O)Nc1cc(-c2cc(C(=O)NCCn3ccnc3)c(-c3ccccc3Cl)o2)c(C)cn1 [Compound I-12, 5-(2-acetamido-5-methylpyridin-4-yl)-2-(2-chlorophenyl)-N-[2-(1H-imidazol-1-yl)ethyl]-3-furamide]
inhibition at 1.111 µM: 61%

CC(=O)Nc1cc(-c2nc(C(=O)NCCCCO)c(-c3ccccc3Cl)o2)c(C)cn1 [Compound I-13, 2-(2-acetamido-5-methylpyridin-4-yl)-5-(2-chlorophenyl)-N-(4-hydroxybutyl)-1,3-oxazole-4-carboxamide]
inhibition at 1.111 µM: 95%

CC(=O)Nc1cc(-c2cc(C(=O)NC3CCC3)c(-c3ccccc3Cl)o2)c(C)cn1 [Compound I-14, 5-(2-acetamido-5-methylpyridin-4-yl)-2-(2-chlorophenyl)-N-cyclobutyl-3-furamide]
inhibition at 1.111 µM: 88%

CC(=O)Nc1cc(-c2cc(C(=O)Nc3nccs3)c(-c3ccccc3Cl)o2)c(C)cn1 [Compound I-15, 5-(2-acetamido-5-methylpyridin-4-yl)-2-(2-chlorophenyl)-N-(1,3-thiazol-2-yl)-3-furamide]
inhibition at 1.111 µM: 103%

CC(=O)Nc1cc(-c2nc(-c3cc(CN4CCCC4)ccc3Cl)c(-c3nnc[nH]3)o2)c(C)cn1 [Compound I-16, N-(4-{4-[2-chloro-5-(pyrrolidin-1-ylmethyl)phenyl]-5-(4H-1,2,4-triazol-3-yl)-1,3-oxazol-2-yl}-5-methylpyridin-2-yl)acetamide]
inhibition at 1.111 µM: 131%

CC(=O)Nc1cc(-c2cc(-c3nnc[nH]3)c(N3CCCS3(=O)=O)o2)c(C)cn1 [Compound I-17, N-{4-[5-(1,1-dioxidoisothiazolidin-2-yl)-4-(4H-1,2,4-triazol-3-yl)-2-furyl]-5-methylpyridin-2-yl}acetamide]
inhibition at 1.111 µM: 127%

O=C(Nc1cc(-c2nc(-c3nnc[nH]3)c(-c3ccccc3Cl)o2)ccn1)C1CC1 [Compound I-18, N-{4-[5-(2-chlorophenyl)-4-(4H-1,2,4-triazol-3-yl)-1,3-oxazol-2-yl]pyridin-2-yl}cyclopropanecarboxamide]
inhibition at 1.111 µM: 120%

CC(=O)Nc1cc(-c2cc(C(=O)Nc3ccccc3)c(-c3ccccc3Cl)o2)c(C)cn1 [Compound I-19, 5-(2-acetamido-5-methylpyridin-4-yl)-2-(2-chlorophenyl)-N-phenyl-3-furamide]
inhibition at 1.111 µM: 48%

CC(=O)Nc1cc(-c2nc(C(=O)NCc3ccccn3)c(-c3ccccc3Cl)o2)c(C)cn1 [Compound I-20, 2-(2-acetamido-5-methylpyridin-4-yl)-5-(2-chlorophenyl)-N-(pyridin-2-ylmethyl)-1,3-oxazole-4-carboxamide]
inhibition at 1.111 µM: 37%

CC(=O)Nc1cc(-c2nc(C(=O)NC(C)C)c(-c3ccccc3Cl)o2)c(C)cn1 [Compound I-21, 2-(2-acetamido-5-methylpyridin-4-yl)-5-(2-chlorophenyl)-N-isopropyl-1,3-oxazole-4-carboxamide]
inhibition at 1.111 µM: 25%

COC(CNC(=O)c1cc(-c2cc(NC(C)=O)ncc2C)oc1-c1ccccc1Cl)OC [Compound I-22, 5-(2-acetamido-5-methylpyridin-4-yl)-2-(2-chlorophenyl)-N-(2,2-dimethoxyethyl)-3-furamide]
inhibition at 1.111 µM: 110%

CC(=O)Nc1cc(-c2cc(-c3nnc[nH]3)c(-c3ccccc3Cl)o2)c(C)cn1 [Compound I-23, N-{4-[5-(2-chlorophenyl)-4-(4H-1,2,4-triazol-3-yl)-2-furyl]-5-methylpyridin-2-yl}acetamide]
inhibition at 1.111 µM: 139%

CC(=O)Nc1cc(-c2cc(C(=O)NCCCn3ccnc3)c(-c3ccccc3Cl)o2)c(C)cn1 [Compound I-24, 5-(2-acetamido-5-methylpyridin-4-yl)-2-(2-chlorophenyl)-N-[3-(1H-imidazol-1-yl)propyl]-3-furamide]
inhibition at 1.111 µM: 102%

CC(=O)Nc1cc(-c2nc(C(=O)NCCOCCO)c(-c3ccccc3Cl)o2)c(C)cn1 [Compound I-25, 2-(2-acetamido-5-methylpyridin-4-yl)-5-(2-chlorophenyl)-N-[2-(2-hydroxyethoxy)ethyl]-1,3-oxazole-4-carboxamide]
inhibition at 1.111 µM: 41%

CC(=O)Nc1cc(-c2cc(-c3nnc[nH]3)c(N3CCCC(N(C)C)C3)o2)c(C)cn1 (centres unmarked) [Compound I-26, N-(4-{5-[3-(dimethylamino)piperidin-1-yl]-4-(4H-1,2,4-triazol-3-yl)-2-furyl}-5-methylpyridin-2-yl)acetamide]
inhibition at 1.111 µM: 129%

CC(=O)Nc1cc(-c2cc(C(C)=O)c(-c3ccccc3Cl)o2)c(C)cn1 [Compound I-27, N-{4-[4-acetyl-5-(2-chlorophenyl)-2-furyl]-5-methylpyridin-2-yl}acetamide]
inhibition at 1.111 µM: 133%

CC(=O)Nc1cc(-c2nc(-c3cc(CN4CCCC4)ccc3Cl)c(C(N)=O)o2)c(C)cn1 [Compound I-28, 2-(2-acetamido-5-methylpyridin-4-yl)-4-[2-chloro-5-(pyrrolidin-1-ylmethyl)phenyl]-1,3-oxazole-5-carboxamide]
inhibition at 1.111 µM: 81%

COCCNC(=O)c1cc(-c2cc(NC(C)=O)ncc2C)oc1-c1ccccc1Cl [Compound I-29, 5-(2-acetamido-5-methylpyridin-4-yl)-2-(2-chlorophenyl)-N-(2-methoxyethyl)-3-furamide]
inhibition at 1.111 µM: 116%

CC(=O)Nc1cc(-c2nc(-c3cc[nH]n3)c(-c3ccccc3Cl)o2)c(C)cn1 [Compound I-30, N-{4-[5-(2-chlorophenyl)-4-(1H-pyrazol-3-yl)-1,3-oxazol-2-yl]-5-methylpyridin-2-yl}acetamide]
inhibition at 1.111 µM: 114%
